Experimental data as given in PubChem BioAssay (NCI).
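Values below derive from 48-hour exposures of cells grown in 96-well plates, with endpoints linearly interpolated between the two concentrations bracketing the appropriate inhibition level. TGI marks complete inhibition of growth.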

How the values were obtained:
Assay in all cases: inhibition of tumour cell growth, NCI panel, 48 h
OVCAR-5 ovarian = test system: OVCAR-5 ovarian
COLO 205 colon = test system: COLO 205 colon
HS 578T breast = test system: HS 578T breast
SK-MEL-2 melanoma = test system: SK-MEL-2 melanoma
SK-MEL-5 melanoma = test system: SK-MEL-5 melanoma
M14 melanoma = test system: M14 melanoma
MDA-N = test system: MDA-N
786-0 renal = test system: 786-0 renal
LOX IMVI melanoma = test system: LOX IMVI melanoma
OVCAR-4 ovarian = test system: OVCAR-4 ovarian
CCRF-CEM leukemia = test system: CCRF-CEM leukemia
SNB-19 CNS = test system: SNB-19 CNS
HCC-2998 colon = test system: HCC-2998 colon
NCI-H23 lung = test system: NCI-H23 lung
RXF 393 renal = test system: RXF 393 renal
SK-MEL-28 melanoma = test system: SK-MEL-28 melanoma
HOP-62 NSCLC = test system: HOP-62 NSCLC
UACC-62 melanoma = test system: UACC-62 melanoma
UACC-257 melanoma = test system: UACC-257 melanoma
HT29 colon = test system: HT29 colon
U251 CNS = test system: U251 CNS
SF-539 CNS = test system: SF-539 CNS
NCI-H522 lung = test system: NCI-H522 lung
MDA-MB-231 breast = test system: MDA-MB-231 breast
OVCAR-3 ovarian = test system: OVCAR-3 ovarian
CAKI-1 renal = test system: CAKI-1 renal
MALME-3M melanoma = test system: MALME-3M melanoma
KM12 colon = test system: KM12 colon
A498 renal = test system: A498 renal
NCI/ADR-RES ovarian = test system: NCI/ADR-RES ovarian
UO-31 renal = test system: UO-31 renal
IGROV1 ovarian = test system: IGROV1 ovarian
RPMI-8226 leukemia = test system: RPMI-8226 leukemia
HOP-92 NSCLC = test system: HOP-92 NSCLC
TK-10 renal = test system: TK-10 renal
HCT-116 colon = test system: HCT-116 colon
MOLT-4 leukemia = test system: MOLT-4 leukemia
PC-3 prostate = test system: PC-3 prostate
DU-145 prostate = test system: DU-145 prostate
K-562 leukemia = test system: K-562 leukemia
ACHN renal = test system: ACHN renal
T-47D breast = test system: T-47D breast
MDA-MB-435 = test system: MDA-MB-435
A549 NSCLC = test system: A549 NSCLC
SR leukemia = test system: SR leukemia
SF-268 CNS = test system: SF-268 CNS
OVCAR-8 ovarian = test system: OVCAR-8 ovarian
HCT-15 colon = test system: HCT-15 colon
SN12C renal = test system: SN12C renal
SW-620 colon = test system: SW-620 colon
SK-OV-3 ovarian = test system: SK-OV-3 ovarian
HL-60(TB) leukemia = test system: HL-60(TB) leukemia
SF-295 CNS = test system: SF-295 CNS
NCI-H226 lung = test system: NCI-H226 lung
EKVX NSCLC = test system: EKVX NSCLC

Measured: TGI

CCOC(=O)C1=C(O)CC(=O)N=C1N1CCCC1
> 100 µM: OVCAR-5 ovarian | COLO 205 colon | HS 578T breast | SK-MEL-2 melanoma | SK-MEL-5 melanoma | M14 melanoma | MDA-N | 786-0 renal | LOX IMVI melanoma | OVCAR-4 ovarian | CCRF-CEM leukemia | SNB-19 CNS | HCC-2998 colon | NCI-H23 lung | RXF 393 renal | SK-MEL-28 melanoma | HOP-62 NSCLC | UACC-62 melanoma | UACC-257 melanoma | HT29 colon | U251 CNS | SF-539 CNS | NCI-H522 lung | MDA-MB-231 breast | OVCAR-3 ovarian | CAKI-1 renal | MALME-3M melanoma | KM12 colon | A498 renal | NCI/ADR-RES ovarian | UO-31 renal | IGROV1 ovarian | RPMI-8226 leukemia | HOP-92 NSCLC | TK-10 renal | HCT-116 colon | MOLT-4 leukemia | PC-3 prostate | DU-145 prostate | K-562 leukemia | ACHN renal | T-47D breast | MDA-MB-435 | A549 NSCLC | SR leukemia | SF-268 CNS | OVCAR-8 ovarian | HCT-15 colon | SN12C renal | SW-620 colon | SK-OV-3 ovarian | HL-60(TB) leukemia | SF-295 CNS | NCI-H226 lung | EKVX NSCLC
